Measurements from patent US12370161B2, “Composition for treating atopy or pruritus comprising N-acetyl or N-acyl amino acid” (STEMDR INC., priority 2017, dated 2025).

Test system: atopic dermatitis-induced Balb/c mouse
Test: SCORAD clinical skin score, DNFB-induced atopic dermatitis in Balb/c mouse
Format: in vivo
Design: key to Mouse 1 Sum / Mean (of Sum, SCORAD) / Mouse 2 Sum / Mouse 3 Sum: sum of symptom grades, each 0 (none) to 3 (severe)
Details: DNFB Balb/c; for Mouse 1 Erythema: 0.1% in PBS, 200 μL on back skin daily day 22-28, grade 0-3 (0 no symptom, 1 mild, 2 moderate, 3 severe); for Mouse 1 Abrasion / Mouse 1 Dryness / Mouse 1 Edema / Mouse 1 Eschar / Mouse 1 Lichenification / Mouse 1 Sum / Mouse 2 Abrasion / Mouse 2 Dryness / Mouse 2 Edema / Mouse 2 Erythema / Mouse 2 Eschar / Mouse 2 Lichenification / Mouse 2 Sum / Mouse 3 Abrasion / Mouse 3 Dryness / Mouse 3 Edema / Mouse 3 Erythema / Mouse 3 Eschar / Mouse 3 Lichenification / Mouse 3 Sum / Mean (of Sum, SCORAD): 0.1% topical day 22-28; for Mouse 1 Abrasion / Mouse 1 Dryness / Mouse 1 Edema / Mouse 1 Eschar / Mouse 1 Lichenification / Mouse 2 Abrasion / Mouse 2 Dryness / Mouse 2 Edema / Mouse 2 Erythema / Mouse 2 Eschar / Mouse 2 Lichenification / Mouse 3 Abrasion / Mouse 3 Dryness / Mouse 3 Edema / Mouse 3 Erythema / Mouse 3 Eschar / Mouse 3 Lichenification: grade 0-3; for Mouse 1 Sum / Mouse 2 Sum / Mouse 3 Sum: overall dermatitis score, sum of individual scores; for Mean (of Sum, SCORAD): mean of 3 mice
Description: In order to induce atopy-like dermatitis in Balb/c mice, DNFB sensitization was induced by applying 100 μL of 0.35% 2,4-dinitrofluorobenzene (DNFB) (Sigma, USA) in acetone/olive oil (3:1) on the shaved back skin of the mice. Then, dermatitis was induced by applying 100 μL of 0.25% DNFB on days 6, 9, 12, 15, 18 21, 24 and 27 on the shaved back skin. Control mice were treated with a vehicle of the same volume (FIG. 1A).
After dissolving an N-acetyl or N-acylamino acid in phosphate-buffered saline to 0.1%, 200 μL of the solution was applied on the back skin of the mice every day, from day 22 until day 28 for the Balb/c atopic dermatitis model, and from day 15 until day 21 for the Nc/Nga atopic dermatitis model. When the N-acetyl or N-acylamino acid was treated together with DNFB, they were treated with 12-hour intervals in order to avoid direct reaction between the DNFB and the N-acetyl or N-acylamino acid. A non-treated group and a 2,4-dinitrofluorobenzene (DNFB) group were treated with phosphate-buffered saline of the same volume (FIGS. 1A-1B). As the N-acetylamino acid, products purchased from Sigma-Aldrich (USA), MP scientific (USA), TCI (Tokyo Chemical Industry, Japan), Santacruz (USA), etc. were used without purification.
The degree of skin soothing and the severity of atopic dermatitis were evaluated macroscopically according to the previously established SCORAD (SCORing Atopic Dermatitis) method (Oranje et al., 2007). The degree of symptoms such as edema, erythema, eschar, dryness, abrasion, lichenification, etc. was graded from 0 to 3 (0, no symptom; 1, mild; 2, moderate; 3, severe). The overall dermatitis score was determined from the sum of all individual scores (Table 1). The assessment was performed by an investigator who was blind to the grouping of the mice.

Row | Structure (SMILES) | Mouse 1 Erythema | Mouse 1 Abrasion | Mouse 1 Dryness | Mouse 1 Edema | Mouse 1 Eschar | Mouse 1 Lichenification | Mouse 1 Sum | Mouse 2 Abrasion | Mouse 2 Dryness | Mouse 2 Edema | Mouse 2 Erythema | Mouse 2 Eschar | Mouse 2 Lichenification | Mouse 2 Sum | Mouse 3 Abrasion | Mouse 3 Dryness | Mouse 3 Edema | Mouse 3 Erythema | Mouse 3 Eschar | Mouse 3 Lichenification | further results
1 | CC(=O)N1CCC[C@H]1C(=O)O [N-acetyl-L-proline] | 3 | 2 | 3 | 2 | 1 | 2 | 13 | 2 | 3 | 3 | 2 | 2 | 2 | 14 | 1 | 3 | 2 | 3 | 2 | 2 | Mouse 3 Sum: 13; Mean (of Sum, SCORAD): 13.33
2 | CC(=O)NCC(=O)O [N-acetyl-L-glycine] | 3 | 2 | 2 | 2 | 2 | 3 | 14 | 2 | 3 | 2 | 3 | 2 | 3 | 15 | 2 | 3 | 2 | 3 | 2 | 3 | Mouse 3 Sum: 15; Mean (of Sum, SCORAD): 14.67
3 | CC(=O)N[C@@H](Cc1ccc(O)cc1)C(=O)O [N-acetyl-L-tyrosme] | 3 | 2 | 3 | 2 | 3 | 2 | 15 | 2 | 3 | 2 | 3 | 2 | 3 | 15 | 2 | 2 | 2 | 3 | 2 | 2 | Mouse 3 Sum: 13; Mean (of Sum, SCORAD): 14.33
4 | CC(=O)N[C@H](C(=O)O)C(C)C [N-acetyl-L-valine] | 3 | 2 | 2 | 2 | 2 | 3 | 14 | 2 | 2 | 2 | 2 | 2 | 3 | 13 | 1 | 3 | 2 | 2 | 2 | 2 | Mouse 3 Sum: 12; Mean (of Sum, SCORAD): 13
5 | CC(=O)N[C@@H](CC(C)C)C(=O)O [N-acetyl-L-leucine] | 3 | 2 | 3 | 2 | 2 | 2 | 14 | 2 | 3 | 2 | 3 | 2 | 3 | 15 | 2 | 3 | 2 | 3 | 2 | 1 | Mouse 3 Sum: 13; Mean (of Sum, SCORAD): 14
